For one assay, the system named is C. jejuni. In kind it is in vivo, mice. Conditions: colon, rapamycin treatment vs infected untreated mice. An excerpt: All animal protocols were approved by the Institutional Animal Care and Use Committee of the University of North Carolina at Chapel Hill (Chapel Hill, N.C., United States of America). Germ-free 8 to 12 week old II10^−/−; NF-κBEGFP (129/SvEv; C57BL/6 mixed background) mice were transferred from germ-free isolators and immediately gavaged with 10^9 C. jejuni cfu/mouse (strain 81-176 (Korlath et al., 1985)). Mice were then housed under Specific Pathogen-Free (SPF) conditions and sacrificed at 5 or 12 days. Germ-free II10^−/−; NF-κB^EGFP mice were also gavaged with 10^7 Salmonella typhimurium (S. typhimurium strain CA32) cfu/mouse for 2 days or 10^7 Escherichia coli (E. coli strain NC 101) cfu/mouse for 12 days. Conventionally-derived II10^−/−; NF-κB^EGFP mice were put on an antibiotic cocktail (streptomycin 2 g/L, gentamycin 0.5 g/L, bacteriocin 1 g/L and ciprofloxacin 0.125 g/L) in water for 7 days and antibiotics withdrawn 24 hours prior to infection. The mice were then gavaged with 10^9 C. jejuni cfu/mouse for 14 days. To inhibit mTOR signaling, mice were injected daily intraperitoneally (i.p.) with rapamycin (1.5 mg/kg) (Fisher Scientific, Hampton, N.H., United States of America). At the end of the experiment, mice were euthanized using CO2 intoxication. Colon, mesenteric lymph nodes (MLN) and spleen were collected for further processing RNA, protein or C. jejuni culture on Campylobacter selective blood plates (Remel, Thermo Scientific, Hampton, N.H., United States of America) for 48 h at 37° C. using the GasPak system (Becton Dickinson, Franklin Lakes, N.J., United States of America). […] Colons were fixed in 10% buffered formalin (Fisher Scientific, Hampton, N.H., United States of America) overnight, paraffin-embedded, sectioned, and stained with H&E for histological evaluation. Images were acquired using a DP71 camera and DP Controller 3.1.1.276 (Olympus, Center Valley, Pa., United States of America). Intestinal inflammation was scored by evaluating the degree of lamina propria immune cell infiltration, goblet cell depletion, architectural distortion, as well as crypt hyperplasia, ulceration, and abscesses using a score from 0-4. (Lippert et al., 2009). Cecal and colonic inflammation induced by S. typhimurium was evaluated using a score from 0-13 as described. (Hapfelmeier et al., 2005).
MLN and spleen were aseptically resected. Colon tissue was opened, resected and washed three times in sterile PBS. […] C. jejuni colonies were counted and data presented as colony forming unit (cfu)/g tissue.

A further assay deals with Gr-1+/CD45+ cells. Put plainly: Flow cytometry of peripheral blood neutrophils (Gr-1+/CD45+). The assay is classed as in vivo. Conditions: rapamycin-treated infected vs untreated infected mice. How it is done:
To assess blood neutrophils, mice were sacrificed and peripheral blood was drawn and mixed with an anticoagulant (20 μL 96 mmol/L EDTA). White blood cells were collected following erythrocyte lysis. The cells were then incubated with antibodies against CD45 (PE conjugated), Gr-1 (fluorescein isothiocyanate conjugated) (eBiosciences, San Diego, Calif., United States of America). To analyze the change of CD4^+ cells after antibody-mediated depletion, freshly isolated splenocytes and MLNs from C jejuni-infected mice were then incubated with PE-conjugated antibodies against CD4 (eBiosciences, San Diego, Calif., United States of America). The cells were analyzed on a Cyan flow cytometer (Beckman Coulter, Inc., Brea, Calif., United States of America) to determine the proportion of total immune cells, neutrophils, or CD4^+ T cells, respectively. The results were then analyzed on Summit software (Beckman Coulter, Inc., Brea, Calif., United States of America).
For orientation: A flow cytometer gives signals particle by particle.

The subject of the next assay is II-12p40 mRNA. Put plainly: Real-time RT-PCR of colonic II-12p40 mRNA. The assay is classed as in vivo, mice. To be noted: rapamycin treatment. On the procedure:
(§1) Total RNA from colonic tissue was extracted using TRIzol® kit (Invitrogen, Carlsbad, Calif., United States of America). Complementary DNA was prepared using M-MLV (Invitrogen). Messenger RNA levels of proinflammatory genes were determined using SYBR® Green PCR Master Mix (Applied Biosystems, Carlsbad, Calif., United States of America) on an ABI 7900HT Fast Real-Time PCR System and normalized to Gapdh. The polymerase chain reactions were performed according to the manufacturer's recommendation. The following gene primers were used: Gapdh_forward: 5′-[…]-3′ (SEQ ID NO: 2), Gapdh_reverse: 5′-[…]-3′ (SEQ ID NO: 3), II-1_forward: 5′-[…]-3′ (SEQ ID NO: 4), II-1_reverse: 5′-[…]-3′ (SEQ ID NO: 5), Cxcl2_forward: 5′-[…]-3′ (SEQ ID NO: 6), Cxcl2_reverse: 5′-[…]-3′ (SEQ ID NO: 7), II-17a_forward: 5′-[…]-3′ (SEQ ID NO: 8), II-17a_reverse: 5′-[…]-3′ (SEQ ID NO: 9), II12p40_forward: […] (SEQ ID NO: 10), II12p40_reverse: […] (SEQ ID NO: 11), Tnf forward: […] (SEQ ID NO: 12), Tnf reverse: […] (SEQ ID NO: 13).
For orientation: Quantitative PCR measures a nucleic acid by following its amplification.

A further assay deals with IL-1β. Put plainly: ELISA of IL-1β secreted from cultured colon explants and MLN. Conditions: rapamycin-treated infected mice vs control. The assay is classed as in vivo. How it is done: (§2) Colonic tissue, MLNs, and spleen were weighed, minced with scissors, and incubated in 1 mL 3% fetal bovine serum and 1% antibiotics RPMI medium in a 24-well plate. After 18-hour incubation, medium was collected and centrifuged at 7000 rpm for 5 minutes. Supernatant was collected and stored at −80° C. IL-1β and IL-17 (A) concentrations were assessed by enzyme-linked immunosorbent assay kits (R&D Systems, Minneapolis, Minn., United States of America) following the manufacturer's specification. The IL-17 enzyme-linked immunosorbent assay has no cross-reactivity to IL-17B, C, D, E, and F.

For the next assay, the system named is II-17a mRNA. Put plainly: Real-time RT-PCR of colonic II-17a mRNA. In kind it is in vivo, mice. How it is done: as §1
(§3) Total RNA from intestinal tissues was extracted using TRIzol® kit (Invitrogen, Carlsbad, Calif., United States of America) following the manufacture's guide. cDNA was reverse-transcribed using M-MLV (Invitrogen). Proinflammatory 111β, Cxcl2, II17a and Tnfα mRNA expression levels were measured using SYBR® Green PCR Master mix (Applied Biosystems, Carlsbad, Calif., United States of America) on an ABI 7900HT Fast Real-Time PCR System and normalized to Gapdh. The PCR primers used were reported previously. (Sun et al., 2012). The PCR reactions were performed for 40 cycles according to the manufacturer's recommendation, and RNA fold changes were calculated using the ΔΔct method.

Another assay deals with II1β mRNA. Put plainly: Real-time RT-PCR of colonic II1β mRNA. The assay is classed as in vivo, mice. On the procedure: as §1, §3
The next assay relates to Cxcl2 mRNA. Put plainly: Real-time RT-PCR of colonic Cxcl2 mRNA. In kind it is in vivo, mice. On the procedure: as §1, §3
The test system of another assay is Tnfα mRNA. Put plainly: Real-time RT-PCR of colonic Tnfα mRNA. The assay is classed as in vivo, mice. To be noted: rapamycin treatment. How it is done:
as §1

The subject of a further assay is IL-17. Put plainly: ELISA of IL-17 secreted from cultured colon explants and MLN. The assay is classed as in vivo. Conditions: rapamycin-treated infected mice vs control. How it is done:
as §2
(In general: ELISA stands for enzyme-linked immunosorbent assay.)

Where [1] appears, read: supernatant of cultured colon explants.
[2] abbreviates: colon, rapamycin-treated, C. jejuni-infected mice.
[3] abbreviates: wortmannin vs vehicle-treated infected mice.

As to `CO[C@H]1C[C@@H]2CC[C@@H](C)[C@@](O)(O2)C(=O)C(=O)N2CCCC[C@H]2C(=O)O[C@H]([C@H](C)C[C@@H]2CC[C@@H](O)[C@H](OC)C2)CC(=O)[C@H](C)/C=C(\C)[C@@H](O)[C@@H](OC)C(=O)[C@H](C)C[C@H](C)/C=C/C=C/C=C/1C` [rapamycin], the “reduction of C. jejuni colonic invasion (culture count)” value in the assay on C. jejuni is 90%. The “decrease of ratio of Gr-1+/CD45+ cells in the blood” value with Gr-1+/CD45+ cells stood at 41%. Besides, the “C. jejuni-induced colonic II-12p40 mRNA accumulation” value in the assay with II-12p40 mRNA was “not significantly inhibited”. The “reduction of IL-1β production” value is 41% in the assay on IL-1β (MLN) and 59% in the assay with IL-1β (setting [1]). The “attenuation of C. jejuni induced II-17a mRNA accumulation” value in the assay on II-17a mRNA (setting [2]) was 92%. The “attenuation of C. jejuni induced I1-1β mRNA accumulation” value in the assay on II1β mRNA (setting [2]) is given as 79%. The “attenuation of C. jejuni induced Cxcl2 mRNA accumulation” value with Cxcl2 mRNA (setting [2]) was 75%. In addition, in the assay on Tnfα mRNA, the “C. jejuni-induced colonic Tnfα mRNA accumulation” value was “not significantly inhibited”. The “attenuation of IL-17 production” value in the assay with IL-17 (MLN) is reported as 82%. For the same molecule, in the assay with IL-17 (setting [1]), the “reduction of secreted IL-17” value amounted to 94%.
Turning to `COC[C@H]1OC(=O)c2coc3c2[C@@]1(C)C1=C(C3=O)[C@@H]2CCC(=O)[C@@]2(C)C[C@H]1OC(C)=O` [wortmannin], the “block of C. jejuni-induced II17a mRNA accumulation” value with II-17a mRNA (setting [3]) was determined as 78%. Moreover, in the assay on II1β mRNA (setting [3]), the “block of C. jejuni-induced I11β mRNA accumulation” value was found to be 50%. Moreover, the “block of C. jejuni-induced Cxcl2 mRNA accumulation” value in the assay with Cxcl2 mRNA (setting [3]) came to 77%.
